The values that follow come from patent US20240262860A1, “PENTACYCLIC TRITERPENOID GLYCOSIDE COMPOUND, AND PREPARATION METHOD THEREFOR AND USE THEREOF” (SHANGHAI INSTITUTE OF MATERIA MEDICA, CHINESE ACADEMY OF …, priority 2020, published 2024).

In general, EC50 refers to the midpoint of the concentration-response curve.

“Also recorded” adds a separate entry of the source.

In one data set the test system is influenza virus. It counts as cell-based. The following applies: MDCK cells, screening concentration 50 μM, 36 h.
The subject of another data set is MDCK cell. Nature of the data set: Cytotoxicity in the anti influenza virus assay (MDCK cells). It is filed as cell-based. Particulars: screening concentration 50 μM. The procedure: CellTiter-Glo® Luminescent Cell Viability Assay
Screening concentration: 50 μM
MDCK cells were laid with 96 well plates (1×10^4/well) and incubated in 37° C. and 5% CO2 incubators for 24 h, then the medicine was added.
After dosing, the 96 well plate was put in the 37° C., 5% CO2 incubator for 36 h, and detected with the microplate reader.

Another data set concerns ICR mice. Nature of the data set: Oral glucose tolerance (OGTT) pharmacodynamic experiment in ICR mice. The following applies: for hypoglycemic effect: OGTT; for hypoglycemic activity: oral glucose tolerance, glucose 5 g/kg, compound given 0.5 h before sugar. It is filed as in vivo. The procedure:
1. Pharmacodynamic Experiment of Compound on Oral Glucose Tolerance in ICR Mice
After the animals arrived at WuXi AppTec facilities, they were kept in the animal feeding room with strictly controlled environmental conditions. The temperature was kept at 20-24° C. and the humidity was kept at 30-70% in the feeding room. The temperature and humidity of the feeding room were monitored in real time through the temperature and humidity meter, and the temperature and humidity were recorded twice a day (once in the morning and once in the afternoon). The lighting in the animal feeding room was controlled by an electronic timing lighting system, which was turned on for 12 hours every day and turned off for 12 hours (on at 7:00 a.m. and off at 19:00 p.m.). During the experiment, the animals were raised in a single cage and toys were provided for mice in each cage. During the experiment, the animals freely took food (growth/reproduction feed for rats and mice) and water.
After the animals arrived, they can adapt to the environment for 1-2 weeks before conducting the experiment.
1) Preparation of liquid medicine: each compound was prepared on the first day of the experiment, and then stored in a 4° C. refrigerator for use on the next day.
2) Administration: After grouping, animals in each group were administered 0.5 hours before sugar administration.
3) Oral glucose tolerance experiment: sugar was administrated to the animals by gavage 0.5 hour after the end of the animal administration, and the time of sugar administration was recorded as 0 min. The oral dose of glucose was 5 g/kg, 10 ml/kg. The blood glucose of animals was detected before administration, before sugar administration, and 15, 30, 60, 90, and 120 minutes after sugar administration. The blood glucose was detected with a blood glucose meter and the corresponding blood glucose test paper.

In data set [1] the test system is intestinal endocrine cell line STC-1 cell. Description: In vitro GLP-1 secretion in STC-1 cells (HTRF kit). It counts as cell-based. The following applies: for EC50: 1 h treatment, read-out: EC50 of promoting GLP-1 secretion in vitro. The procedure: Cell line: intestinal endocrine cell line STC-1 cell
Positive control: INT777 (TGR5 receptor agonist)
Others: KRBH buffer, BSA, DPP4 inhibitor
STC-1 cells were seeded with a certain density. After the cells adhered to the wall overnight, they were starved with KRBH buffer, while BSA was used to maintain nutrition, and degradation of GLP-1 was reduced with DPP4 inhibitors. After 1 h, they were replaced with glucose free or glucose containing KRBH buffer to stimulate GLP-1 secretion. At the same time, compounds of certain concentrations were added. After 1 h of treatment, supernatant was collected and tested for GLP-1 concentration with HTRF kit. The secretion of LDH was also detected to indicate the toxicity of the compounds.
(In general: TR-FRET usually uses a lanthanide donor and a delayed reading to cut background.)

The test system of the next data set is SARS Cov-2 virus. Nature of the data set: SARS Cov-2 virus replication inhibition in Vero E6 cells (viral copy number by qPCR). It counts as cell-based. Particulars: Severe acute respiratory syndrome coronavirus 2, Vero C1008, MOI 0.05, 24 hours. (In general: Real-time PCR tracks product formation cycle by cycle.)
A short description of another data set: PK property in mice. The following applies: PO 25 mg/kg, IV 3 mg/kg. It is filed as in vivo, ICR (CD-1) mice. The procedure:
Species/strain: ICR (CD-1) mice
Gender/number of rats: male (n=6)
Weight (g): male (20-24 g)
Type of diet: standard rodent diet • freely drink • Fasted for 12 hours before administration and keeping fasting for 2 hours.
Feeding: animal room environment control (target conditions: temperature 18 to 29° C., relative humidity 30 to 70%. Temperature and relative humidity were monitored every day. The electronic time control lighting system was used to provide 12 hours of light/12 hours of dark cycle.

With `CC1(C)CC[C@]2(C(=O)O)CC[C@]3(C)C(=CCC4[C@@]5(C)CC[C@H]([C@@H](O)[C@@H]6OC(CO)[C@@H](O)C(O)C6O)C(C)(C)C5CC[C@]43C)C2C1` (stereo partly drawn) [Example A2, (3S,5S,8R,9R,10S,14R,17R,18S)-Oleanolicacid-3-(1′R)-(hydroxyl)methyl-β-D-glucopyranoside], in the data set on influenza virus, the virus inhibition rate entry is reported as “same virus inhibition rate”. Also, the cytotoxicity result with MDCK cell is “low cytotoxicity; also recorded: lower cytotoxicity than that of ribavirin”.

For the compound `CC1(C)CC[C@]2(C(=O)O)CC[C@]3(C)C(=CCC4[C@@]5(C)CC[C@H]([C@@H](O)[C@@H]6OC(C(=O)O)[C@@H](O)C(O)C6O)C(C)(C)C5CC[C@]43C)C2C1` (stereo partly drawn) [Example A25, (3S,5S,8R,9R,10S,14R,17R,18S)-Oleanolic acid-3-(1′R)-(hydroxy)methyl-β-D-glucurouopyranoside], the hypoglycemic effect result with ICR mice (25 mg/kg) is reported as “obvious hypoglycemic effect”; in the data set with ICR mice (50 mg/kg), “further enhanced hypoglycemic effect”. The hypoglycemic activity entry with ICR mice was “good in vivo hypoglycemic effect; also recorded: best hypoglycemic activity”.

`CC1O[C@@H]([C@H](O)[C@H]2CC[C@@]3(C)C(CC[C@]4(C)C3CC=C3C5CC(C)(C)CC[C@]5(C(=O)O)CC[C@]34C)C2(C)C)C(O)C(O)[C@H]1O` (stereo partly drawn) [Example A43, (3S,5S,8R,9R,10S,14R,17R,18S)-Oleanolic acid-3-(1'S)-(hydroxy)methyl-α-L-rhamnopyranoside]: the hypoglycemic effect result in the data set with ICR mice (25 mg/kg) is on record as “obvious hypoglycemic effect”; in the data set with ICR mice (50 mg/kg), “further enhanced hypoglycemic effect”. Besides, the hypoglycemic activity result in the data set with ICR mice is on record as “good in vivo hypoglycemic effect; also recorded: best hypoglycemic activity”.

Regarding `CC1(C)CC[C@]2(C(=O)O)CC[C@]3(C)C(=CCC4[C@@]5(C)CC[C@@H](C[C@@H]6OC(C(=O)O)[C@@H](O)C(O[C@@H]7OC[C@@H](O)C(O)C7O)C6O)C(C)(C)C5CC[C@]43C)C2C1` (stereo partly drawn) [Example A64, (3R,5S,8R,9R,10S,14R,17R,18S)-Oleanolic acid-3-methyl-β-D-xylopyranosyl(1→3)-β-D-glucurouopyranoside], in data set [1], the “in vitro effect of promoting GLP-1 secretion” value is “good in vitro effect of promoting GLP-1 secretion” and the EC50 amounted to 7.23 µM.

Regarding `CC1(C)CC[C@]2(C(=O)OCn3cccn3)CC[C@]3(C)C(=CCC4[C@@]5(C)CC[C@H]([C@@H](O)[C@@H]6OC(C(=O)O)[C@@H](O)C(O)C6O)C(C)(C)C5CC[C@]43C)C2C1` (stereo partly drawn) [Example A104, (3S,5S,8R,9R,10S,14R,17R,18S)-28-O-(Pyrazol-1″′-yl)methyl oleanolic acid-3-(1′R)-(hydroxy)methyl-β-D-glucurouopyranoside], the EC50 with SARS Cov-2 virus was found to be 3.6 µM. Moreover, the PK properties entry in the data set “PK property in mice” is recorded as “good PK properties”.

In turn, `CNC(=O)C1O[C@@H]([C@H](O)[C@H]2CC[C@@]3(C)C(CC[C@]4(C)C3CC=C3C5CC(C)(C)CC[C@]5(C(=O)O)CC[C@]34C)C2(C)C)C(O)C(O)[C@@H]1O` (stereo partly drawn) [Example A114, (3S,5S,8R,9R,10S,14R,17R,18S)-Oleanolic acid-3-(1′R)-(hydroxy)methyl-6″-methylamino-β-D-glucurouopyranoside] yielded an EC50 with SARS Cov-2 virus of 4.6 µM.

For the compound `CC[C@H]1[C@@H](O)[C@@H]2[C@H](C[C@H](O)[C@]3(C)[C@@H]([C@H](C)C[C@H](C)C(=O)O)CC[C@@H]23)[C@@]2(C)CC[C@@H](O)C[C@@H]12` [INT777, reference compound], the EC50 in data set [1] came to 22.8 µM.
